From PubChem BioAssay AID1845205 (Molecular Pharmacology Branch, DTP, NCI, 2023)
pIC50: −log10 of the molar value.

Test system: MPNST multicellular tumor spheroids, viability % test/control
Assay: Anticancer human tumor MPNST cell line growth inhibition;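 also: spheroids exposed to agents for seven days after three days of growth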;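 as to viability, T/C: luminescence signal used as surrogate for viable cell amount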
Settings: for pIC50: curve of first compound; for viability, T/C: stronger effect = lower value
Text: Multicellular complex tumor spheroid response to DNA repair inhibitors in combination with DNA-damaging drugs
This study explores the anticancer activities of DNA-damaging drugs and inhibitors of DNA damage repair, both as single agents and in combinations. Complex tumor spheroids comprised of malignant cells, endothelial cells and mesenchymal stem cells served as an in vitro model for human solid tumors. This model system incorporates physiologically relevant features and patient-derived or established malignant cell lines with clinically relevant genetic alterations from many tumor types. Twenty-six patient-derived or established malignant cell lines were evaluated representing sarcoma, melanoma, small cell lung cancer (SCLC), non-small cell lung cancer (NSCLC), as well as bladder, ovarian and pancreatic cancers. The concentration ranges selected for each drug and investigational agent were based upon clinically achievable concentrations if the clinical Cmax of the agent was known.
Compounds. The drugs and compounds olaparib (NSC753686), talazoparib (NSC767125), berzosertib (NSC777718), elimusertib (NSC800525), nedisertib (NSC802822), VX-984 (NSC792969), AZD-1390 (NSC803789), temozolomide (NSC362856), topotecan (NSC609699), trabectedin (NSC813783), staurosporine (NSC755774), and gemcitabine (NSC613327) were obtained from the National Cancer Institute (NCI) Developmental Therapeutics Program Chemical Repository. The FDA-approved anticancer drug set is available from the Developmental Therapeutics Program at https://dtp.cancer.gov/organization/dscb/obtaining/available_plates.htm. […] The stock solutions were prepared in dimethyl sulfoxide (DMSO, Sigma-Aldrich, St. Louis, MO, cat. D2650) at 400-fold the tested concentration and stored at -70 degrees C. Prior to their use, the stock solutions were diluted in fresh medium and the final DMSO concentration in the assay was 0.25% (v/v). All drugs and investigational agents were tested over a range starting from a high concentration at or near the clinical Cmax and decreasing in half-log increments. If the clinical Cmax for an agent had not been determined, the highest concentration tested was 10 microM.
Cell Lines. The patient-derived cancer cell (PDC) lines: 156681-154-R-J1-PDC, 283228-195-R-J1-PDC, 287954-098-R-J1-PDC, 292921-168-R-J2-PDC, 349418-098-R-PDC, 425362-245-T-J1-PDC, 556581-035-R-J1-PDC, and BL0293-F563-PDC were received from the NCI Patient-Derived Models Repository (PDMR, https://pdmr.cancer.gov). The established cell lines HS-SY-2 (RRID:CVCL_8719), MPNST, and SYO-1 (RRID:CVCL_7146) were obtained from the Sloan Kettering Institute. The alveolar soft parts sarcoma cell line ASPS-1 (RRID:CVCL_S738) was established at the NCI and grown from internal seed stocks. The following established cell lines were purchased from the American Type Culture Collection (ATCC, Manassas, VA): G-401 (ATCC, cat. CRL-1441, RRID:CVCL_0270), SW982 (ATCC, cat. HTB-93, RRID:CVCL_1734), VA-ES-BJ (ATCC, cat. CRL-2138, RRID:CVCL_1785), NCI-H719 (ATCC, cat. CRL-5837, RRID:CVCL_1582), NCI-H196 (ATCC, cat. CRL-5823, RRID:CVCL_1509), NCI-H841 (ATCC, cat. CRL-5845, RRID:CVCL_1595), NCI-H1618 (ATCC, cat. CRL-5879, RRID:CVCL_1480), NCI-H1876 (ATCC, cat. CRL-5902, RRID:CVCL_1503), DMS 114 (ATCC, cat. CRL-2066; RRID:CVCL_1174), NCI-H211 (ATCC, cat. CRL-5824; RRID:CVCL_1529), and SW 1271 (ATCC, cat. CRL-2177, RRID:CVCL_1716). The small cell lung cancer cell line COR-L88 was purchased from Sigma-Aldrich (cat. 92031917-1VL, RRID:CVCL_1141). The non-small cell lung cancer cell lines NCI-H226 (RRID:CVCL_1544) and NCI-H322M (RRID:CVCL_1557) were established at the NCI and grown from internal seed stocks. Pooled donor human umbilical vein endothelial cells (HUVEC, Lonza, cat. CC-2519) and human mesenchymal stem cells (hMSC, Lonza, cat. PT-2501) were purchased from Lonza (Walkersville, MD).
Cell Culture. All cells were maintained in an incubator at 37 degrees C and 5% CO2 with 95% humidity. […]

CNCc1ccc(-c2cc(-c3nc(-c4ccc(S(=O)(=O)C(C)C)cc4)cnc3N)on2)cc1 + COc1cc2c(cc1O)CCNC21CSC2c3c(OC(C)=O)c(C)c4c(c3C(COC1=O)N1C(O)C3Cc5cc(C)c(OC)c(O)c5C(C21)N3C)OCO4
pIC50 (second compound 30 pM): 6.55 | pIC50 (second compound 94.9 pM): < 5.52 | pIC50 (second compound 0.0003 µM): 7.02 | pIC50 (second compound 0.000949 µM): > 8.02 | pIC50 (second compound 0.003 µM): > 8.02 | viability, T/C (second compound 30 pM, first compound 0.00949 µM): 83.5% | viability, T/C (second compound 30 pM, first compound 0.03 µM): 105% | viability, T/C (second compound 30 pM, first compound 0.0949 µM): 63.5% | viability, T/C (second compound 30 pM, first compound 0.3 µM): 54.8% | viability, T/C (second compound 30 pM, first compound 0.949 µM): 47.2% | viability, T/C (second compound 30 pM, first compound 3 µM): 45.9% | viability, T/C (second compound 94.9 pM, first compound 0.00949 µM): 79% | viability, T/C (second compound 94.9 pM, first compound 0.03 µM): 74% | viability, T/C (second compound 94.9 pM, first compound 0.0949 µM): 70.4% | viability, T/C (second compound 94.9 pM, first compound 0.3 µM): 55.6% | viability, T/C (second compound 94.9 pM, first compound 0.949 µM): 49.7% | viability, T/C (second compound 94.9 pM, first compound 3 µM): 53.6% | viability, T/C (second compound 0.0003 µM, first compound 0.00949 µM): 68.1% | viability, T/C (second compound 0.0003 µM, first compound 0.03 µM): 70.8% | viability, T/C (second compound 0.0003 µM, first compound 0.0949 µM): 50.1% | viability, T/C (second compound 0.0003 µM, first compound 0.3 µM): 42.4% | viability, T/C (second compound 0.0003 µM, first compound 0.949 µM): 46.3% | viability, T/C (second compound 0.0003 µM, first compound 3 µM): 46.8% | viability, T/C (second compound 0.000949 µM, first compound 0.00949 µM): 39% | viability, T/C (second compound 0.000949 µM, first compound 0.03 µM): 39.5% | viability, T/C (second compound 0.000949 µM, first compound 0.0949 µM): 38.5% | viability, T/C (second compound 0.000949 µM, first compound 0.3 µM): 36.2% | viability, T/C (second compound 0.000949 µM, first compound 0.949 µM): 46% | viability, T/C (second compound 0.000949 µM, first compound 3 µM): 48.6% | viability, T/C (second compound 0.003 µM, first compound 0.00949 µM): 6.71% | viability, T/C (second compound 0.003 µM, first compound 0.03 µM): 17.8% | viability, T/C (second compound 0.003 µM, first compound 0.0949 µM): 18.7% | viability, T/C (second compound 0.003 µM, first compound 0.3 µM): 8.25% | viability, T/C (second compound 0.003 µM, first compound 0.949 µM): 12.3% | viability, T/C (second compound 0.003 µM, first compound 3 µM): 8.15%

COc1cc2c(cc1O)CCNC21CSC2c3c(OC(C)=O)c(C)c4c(c3C(COC1=O)N1C(O)C3Cc5cc(C)c(OC)c(O)c5C(C21)N3C)OCO4 (stereo unspecified)
viability, T/C (compound 0.003 µM): 12.3% [middle of 10 runs]

CC(C)n1c(=O)n(C)c2cnc3cc(F)c(-c4ccc(OCCCN5CCCCC5)nc4)cc3c21 + COc1cc2c(cc1O)CCNC21CSC2c3c(OC(C)=O)c(C)c4c(c3C(COC1=O)N1C(O)C3Cc5cc(C)c(OC)c(O)c5C(C21)N3C)OCO4
pIC50 (second compound 30 pM): < 5.00 | pIC50 (second compound 94.9 pM): < 5.00 | pIC50 (second compound 0.0003 µM): < 5.00 | pIC50 (second compound 0.000949 µM): > 7.50 | pIC50 (second compound 0.003 µM): > 7.50 | viability, T/C (second compound 30 pM, first compound 0.0316 µM): 94.6% | viability, T/C (second compound 30 pM, first compound 0.1 µM): 76.6% | viability, T/C (second compound 30 pM, first compound 0.316 µM): 79.8% | viability, T/C (second compound 30 pM, first compound 1 µM): 135% | viability, T/C (second compound 30 pM, first compound 3.16 µM): 110% | viability, T/C (second compound 30 pM, first compound 10 µM): 72.2% | viability, T/C (second compound 94.9 pM, first compound 0.0316 µM): 72.3% | viability, T/C (second compound 94.9 pM, first compound 0.1 µM): 68.9% | viability, T/C (second compound 94.9 pM, first compound 0.316 µM): 79.3% | viability, T/C (second compound 94.9 pM, first compound 1 µM): 64.6% | viability, T/C (second compound 94.9 pM, first compound 3.16 µM): 63.5% | viability, T/C (second compound 94.9 pM, first compound 10 µM): 59.3% | viability, T/C (second compound 0.0003 µM, first compound 0.0316 µM): 55.8% | viability, T/C (second compound 0.0003 µM, first compound 0.1 µM): 47.3% | viability, T/C (second compound 0.0003 µM, first compound 0.316 µM): 61.1% | viability, T/C (second compound 0.0003 µM, first compound 1 µM): 67.5% | viability, T/C (second compound 0.0003 µM, first compound 3.16 µM): 52.5% | viability, T/C (second compound 0.0003 µM, first compound 10 µM): 40.8% | viability, T/C (second compound 0.000949 µM, first compound 0.0316 µM): 47.2% | viability, T/C (second compound 0.000949 µM, first compound 0.1 µM): 46.6% | viability, T/C (second compound 0.000949 µM, first compound 0.316 µM): 45.5% | viability, T/C (second compound 0.000949 µM, first compound 1 µM): 48.1% | viability, T/C (second compound 0.000949 µM, first compound 3.16 µM): 45.2% | viability, T/C (second compound 0.000949 µM, first compound 10 µM): 37.1% | viability, T/C (second compound 0.003 µM, first compound 0.0316 µM): 13.8% | viability, T/C (second compound 0.003 µM, first compound 0.1 µM): 13.6% | viability, T/C (second compound 0.003 µM, first compound 0.316 µM): 11.6% | viability, T/C (second compound 0.003 µM, first compound 1 µM): 10.3% | viability, T/C (second compound 0.003 µM, first compound 3.16 µM): 10% | viability, T/C (second compound 0.003 µM, first compound 10 µM): 6.09%
